PubChem BioAssay AID330 (DTP/NCI, 2004)
Values joined by “and” are separate entries in the source; they are usually repeats but may differ in a detail not shown here. Equal entries are not always repeated. Toxic doses and inconclusive results are not listed. The calls were made as follows: active = survival T/C of 150% or more; inactive = T/C below 125% in these data.

Tested on: P388 leukemia ip, CD2F1 mice, survival T/C
Experiment: NCI In Vivo Anticancer Drug Screen. Data for tumor model P388 Leukemia (intraperitoneal) in CD2F1 (CDF1) mice
Conditions: endpoint: median survival time, higher = longer survival
Procedure, shortened: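 Mice carrying the transplanted tumor received test compound or vehicle. Survival was recorded in each group, and the value is the treated-group measurement divided by that of the vehicle-treated control group.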

[1] = dose: 6.25 mg/kg/injection, schedule: Q01DX009 (ip), vehicle: saline
[2] = dose: 12.5 mg/kg/injection, schedule: Q01DX009 (ip), vehicle: saline
[3] = dose: 200.0 mg/kg/injection, schedule: Q01DX009 (ip), vehicle: saline
[4] = dose: 25.0 mg/kg/injection, schedule: Q01DX009 (ip), vehicle: saline with Tween-80
[5] = dose: 50.0 mg/kg/injection, schedule: Q01DX009 (ip), vehicle: saline with Tween-80
[6] = dose: 100.0 mg/kg/injection, schedule: Q01DX001 (ip), vehicle: saline with Tween-80
[7] = dose: 100.0 mg/kg/injection, schedule: Q01DX009 (ip), vehicle: saline with Tween-80
[8] = dose: 60.0 mg/kg/injection, schedule: Q01DX005 (ip), vehicle: saline with Tween-80
[9] = dose: 200.0 mg/kg/injection, schedule: Q01DX009 (ip), vehicle: saline with Tween-80
[10] = dose: 120.0 mg/kg/injection, schedule: Q01DX005 (ip), vehicle: saline with Tween-80
[11] = dose: 50.0 mg/kg/injection, schedule: Q01DX005 (ip), vehicle: saline with Tween-80
[12] = dose: 100.0 mg/kg/injection, schedule: Q01DX005 (ip), vehicle: saline with Tween-80
[13] = dose: 200.0 mg/kg/injection, schedule: Q01DX005 (ip), vehicle: saline with Tween-80

Measured: T/C

[Cl][Ni][Cl]
inactive: dose: 0.78 mg/kg/injection, schedule: Q01DX009 (ip), vehicle: saline 100 % of control | dose: 1.56 mg/kg/injection, schedule: Q01DX009 (ip), vehicle: saline 103 % of control | dose: 3.13 mg/kg/injection, schedule: Q01DX009 (ip), vehicle: saline 100 % of control | [1] 99 % of control | [2] 99 % of control and 101 % of control

N=C(N)Sc1ccccn1
inactive: dose: 100.0 mg/kg/injection, schedule: Q01DX009 (ip), vehicle: saline 94 % of control | [3] 101 % of control

CC(C)(C)N=O
inactive: [4] 104 % of control | [5] 103 % of control | [6] 100 % of control and 106 % of control | [7] 111 % of control | dose: 200.0 mg/kg/injection, schedule: Q01DX001 (ip), vehicle: saline with Tween-80 100 % of control and 106 % of control and 109 % of control | dose: 400.0 mg/kg/injection, schedule: Q01DX001 (ip), vehicle: saline with Tween-80 105 % of control and 119 % of control | dose: 800.0 mg/kg/injection, schedule: Q01DX001 (ip), vehicle: saline with Tween-80 89 % of control

NC(=S)N/N=C/c1ccc2c(c1)OCO2
inactive: [5] 100 % of control | [7] 100 % of control

COC(=O)C1=C(C(=O)OC)[C]([Hg][CH3])(C(=O)c2ccccc2)N=N1 (stereo not given)
inactive: [1] 93 % of control | [2] 103 % of control | dose: 25.0 mg/kg/injection, schedule: Q01DX009 (ip), vehicle: saline 90 % of control

c1ccc(N=c2cnc3c(ccc4ccccc43)o2)cc1
inactive: dose: 3.75 mg/kg/injection, schedule: Q01DX005 (ip), vehicle: saline with Tween-80 102 % of control | dose: 7.5 mg/kg/injection, schedule: Q01DX005 (ip), vehicle: saline with Tween-80 112 % of control | dose: 15.0 mg/kg/injection, schedule: Q01DX005 (ip), vehicle: saline with Tween-80 107 % of control and 116 % of control | [8] 115 % of control

C/C=C/Cc1nnc(C)c2c(C)[nH]nc12
inactive: [5] 100 % of control | [7] 96 % of control | [9] 102 % of control

COc1ccc(/C=C/C(=N/Nc2ccccc2)C(C)CN(C)C)cc1 (stereo not given)
inactive: [8] 101 % of control | [10] 95 % of control

S=C(/N=N/c1[nH]c2ccccc2c1NNC(=S)NC12CC3CC(CC(C3)C1)C2)NC12CC3CC(CC(C3)C1)C2
inactive: dose: 30.0 mg/kg/injection, schedule: Q01DX005 (ip), vehicle: saline with Tween-80 96 % of control | [8] 96 % of control | [10] 87 % of control | dose: 240.0 mg/kg/injection, schedule: Q01DX005 (ip), vehicle: saline with Tween-80 90 % of control

O=NN(c1ccc(Br)cc1)c1ccccn1
inactive: dose: 25.0 mg/kg/injection, schedule: Q01DX009 (ip), vehicle: other 102 % of control | dose: 50.0 mg/kg/injection, schedule: Q01DX009 (ip), vehicle: other 109 % of control | [5] 100 % of control | dose: 100.0 mg/kg/injection, schedule: Q01DX009 (ip), vehicle: other 109 % of control | [7] 100 % of control | dose: 200.0 mg/kg/injection, schedule: Q01DX009 (ip), vehicle: other 114 % of control | [9] 97 % of control | dose: 400.0 mg/kg/injection, schedule: Q01DX009 (ip), vehicle: other 112 % of control

Nc1ccc2[se]ccc2c1
inactive: dose: 12.5 mg/kg/injection, schedule: Q01DX009 (ip), vehicle: suspension in saline 105 % of control | dose: 25.0 mg/kg/injection, schedule: Q01DX009 (ip), vehicle: suspension in saline 100 % of control | dose: 50.0 mg/kg/injection, schedule: Q01DX009 (ip), vehicle: saline 91 % of control | dose: 50.0 mg/kg/injection, schedule: Q01DX009 (ip), vehicle: suspension in saline 100 % of control | [3] 100 % of control

[O-]c1ccccc1C=NCCN1CC1.[O-]c1ccccc1C=NCCN1CC1.[Zn+2]
inactive: dose: 6.25 mg/kg/injection, schedule: Q01DX009 (ip), vehicle: saline with Tween-80 91 % of control | dose: 12.5 mg/kg/injection, schedule: Q01DX009 (ip), vehicle: saline with Tween-80 97 % of control | [4] 100 % of control

CC1=C(C(=O)Nc2ccccc2)C(/C=C/c2ccccc2)C(C(=O)Nc2ccccc2)=C(C)N1
inactive: dose: 25.0 mg/kg/injection, schedule: Q01DX001 (ip), vehicle: saline with Tween-80 92 % of control | dose: 50.0 mg/kg/injection, schedule: Q01DX001 (ip), vehicle: saline with Tween-80 89 % of control | [6] 96 % of control

CN1CCN(C(=O)/C=C/C(=O)c2ccccc2)CC1
inactive: dose: 30.0 mg/kg/injection, schedule: Q01DX005 (ip), vehicle: Klucel (hydroxypropylcellulose) (HPC) 121 % of control | dose: 30.0 mg/kg/injection, schedule: Q01DX005 (ip), vehicle: saline 108 % of control | dose: 60.0 mg/kg/injection, schedule: Q01DX005 (ip), vehicle: saline 106 % of control and 109 % of control

CC(=O)C(Cl)C(=O)c1c(-c2ccccc2)[nH]c2ccccc12 (stereo not given)
inactive: dose: 100.0 mg/kg/injection, schedule: Q01DX001 (ip), vehicle: Klucel (hydroxypropylcellulose) (HPC) 100 % of control | dose: 200.0 mg/kg/injection, schedule: Q01DX001 (ip), vehicle: Klucel (hydroxypropylcellulose) (HPC) 102 % of control | dose: 400.0 mg/kg/injection, schedule: Q01DX001 (ip), vehicle: Klucel (hydroxypropylcellulose) (HPC) 105 % of control

CCCCCC/C=N/N1C(=O)C2C3C=CC(O3)C2C1=O (stereo not given)
inactive: [11] 103 % of control | [12] 108 % of control | [13] 95 % of control

CCC1C(OC)=CC(CC)(CO)C=C1OC (stereo not given)
inactive: [11] 95 % of control | [12] 95 % of control | [13] 100 % of control

CCCCC1SC2=NCCCN2C1(O)c1ccc(Cl)cc1 (stereo not given)
inactive: [5] 105 % of control | [7] 106 % of control
